These results are taken from ChEMBL document CHEMBL5291721, “A preclinical secondary pharmacology resource illuminates target-adverse drug reaction associations of marketed drugs” (Nat Commun, 2023).

The structures appear in SMILES notation.

Assay [1] has as its target Delta-type opioid receptor (Homo sapiens, UniProt P41143).
The target in assay [2] is D(3) dopamine receptor (Homo sapiens, UniProt P35462).
The target in assay [3] is Motilin receptor (Homo sapiens, UniProt O43193).
Assay [4] has as its target cGMP-inhibited 3',5'-cyclic phosphodiesterase 3A (Homo sapiens, UniProt Q14432). The format is functional.
The target in assay [5] is Voltage-gated inwardly rectifying potassium channel KCNH2 (Homo sapiens, UniProt Q12809). The assay is classed as functional. Conditions: read-out: AC50.
Assay [6] concerns the target T1, Alpha-2A adrenergic receptor (Homo sapiens, UniProt P08913).
T1 sequence (P08913 whole entry): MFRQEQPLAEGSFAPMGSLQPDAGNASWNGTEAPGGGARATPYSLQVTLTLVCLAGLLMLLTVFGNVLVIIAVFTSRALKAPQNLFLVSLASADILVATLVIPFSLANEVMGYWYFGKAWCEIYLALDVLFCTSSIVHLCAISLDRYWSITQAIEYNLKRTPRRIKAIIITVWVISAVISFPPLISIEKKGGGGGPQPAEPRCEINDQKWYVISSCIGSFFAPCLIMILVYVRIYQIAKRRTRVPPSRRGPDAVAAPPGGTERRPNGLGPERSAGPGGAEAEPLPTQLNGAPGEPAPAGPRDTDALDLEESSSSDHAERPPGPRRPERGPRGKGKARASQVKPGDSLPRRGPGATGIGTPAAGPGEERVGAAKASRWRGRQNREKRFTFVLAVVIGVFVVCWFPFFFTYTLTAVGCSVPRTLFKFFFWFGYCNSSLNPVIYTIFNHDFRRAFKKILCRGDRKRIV
The assay is classed as functional, cell-based.

Assay [7] addresses Adenosine receptor A2a (Homo sapiens, UniProt P29274).
The target of assay [8] is T2, 5-hydroxytryptamine receptor 2C (Homo sapiens, UniProt P28335).
T2 sequence (P28335 whole entry): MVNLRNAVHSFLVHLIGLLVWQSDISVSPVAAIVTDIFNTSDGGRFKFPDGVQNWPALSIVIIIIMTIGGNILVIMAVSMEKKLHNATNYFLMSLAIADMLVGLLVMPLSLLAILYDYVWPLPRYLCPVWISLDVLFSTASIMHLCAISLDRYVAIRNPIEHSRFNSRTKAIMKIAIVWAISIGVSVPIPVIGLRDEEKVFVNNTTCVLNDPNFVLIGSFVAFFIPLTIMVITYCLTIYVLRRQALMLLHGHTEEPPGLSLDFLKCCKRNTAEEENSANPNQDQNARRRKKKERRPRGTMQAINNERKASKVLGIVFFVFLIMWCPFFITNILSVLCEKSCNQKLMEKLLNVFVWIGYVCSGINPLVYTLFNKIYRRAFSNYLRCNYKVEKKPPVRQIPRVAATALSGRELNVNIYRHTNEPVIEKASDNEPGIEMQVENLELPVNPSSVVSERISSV

The target of assay [9] is Sodium-dependent noradrenaline transporter (Homo sapiens, UniProt P23975).
Assay [10] deals with 3',5'-cyclic-AMP phosphodiesterase 4D (Homo sapiens, UniProt Q08499). The assay is classed as functional.
In assay [11] the target is T3, 5-hydroxytryptamine receptor 1A (Homo sapiens, UniProt P08908).
T3 sequence (P08908 whole entry): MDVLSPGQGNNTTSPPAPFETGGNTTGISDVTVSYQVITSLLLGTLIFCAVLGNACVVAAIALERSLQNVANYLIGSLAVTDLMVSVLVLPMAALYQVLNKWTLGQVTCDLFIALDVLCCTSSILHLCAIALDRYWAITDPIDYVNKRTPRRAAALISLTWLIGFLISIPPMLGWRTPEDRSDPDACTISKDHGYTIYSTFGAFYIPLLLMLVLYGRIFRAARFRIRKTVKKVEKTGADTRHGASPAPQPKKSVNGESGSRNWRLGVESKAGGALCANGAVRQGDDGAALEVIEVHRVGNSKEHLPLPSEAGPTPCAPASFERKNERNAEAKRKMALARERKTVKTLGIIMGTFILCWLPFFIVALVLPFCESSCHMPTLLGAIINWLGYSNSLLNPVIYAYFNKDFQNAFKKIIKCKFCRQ
The format is functional, cell-based.

Assay [12] addresses T4, Equilibrative nucleoside transporter 1 (Homo sapiens, UniProt Q99808).
T4 sequence (Q99808 whole entry): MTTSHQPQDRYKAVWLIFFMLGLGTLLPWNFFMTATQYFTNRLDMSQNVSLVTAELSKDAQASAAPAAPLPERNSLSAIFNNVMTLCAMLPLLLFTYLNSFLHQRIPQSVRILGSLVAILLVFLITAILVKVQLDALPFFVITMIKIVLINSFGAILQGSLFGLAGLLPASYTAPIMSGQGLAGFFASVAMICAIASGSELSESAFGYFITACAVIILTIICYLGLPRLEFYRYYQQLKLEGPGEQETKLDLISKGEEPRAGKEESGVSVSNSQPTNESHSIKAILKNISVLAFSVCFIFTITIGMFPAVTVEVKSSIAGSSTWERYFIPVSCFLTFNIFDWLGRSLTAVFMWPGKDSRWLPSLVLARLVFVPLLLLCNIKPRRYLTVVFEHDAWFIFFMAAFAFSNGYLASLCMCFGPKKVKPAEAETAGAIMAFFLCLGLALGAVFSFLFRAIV

The target of assay [13] is Sodium-dependent dopamine transporter (Homo sapiens, UniProt Q01959).
The target of assay [14] is Growth hormone secretagogue receptor type 1 (Homo sapiens, UniProt Q92847).
Note: assay procedure not described here.

Chain of Sodium-dependent noradrenaline transporter (P23975 whole entry): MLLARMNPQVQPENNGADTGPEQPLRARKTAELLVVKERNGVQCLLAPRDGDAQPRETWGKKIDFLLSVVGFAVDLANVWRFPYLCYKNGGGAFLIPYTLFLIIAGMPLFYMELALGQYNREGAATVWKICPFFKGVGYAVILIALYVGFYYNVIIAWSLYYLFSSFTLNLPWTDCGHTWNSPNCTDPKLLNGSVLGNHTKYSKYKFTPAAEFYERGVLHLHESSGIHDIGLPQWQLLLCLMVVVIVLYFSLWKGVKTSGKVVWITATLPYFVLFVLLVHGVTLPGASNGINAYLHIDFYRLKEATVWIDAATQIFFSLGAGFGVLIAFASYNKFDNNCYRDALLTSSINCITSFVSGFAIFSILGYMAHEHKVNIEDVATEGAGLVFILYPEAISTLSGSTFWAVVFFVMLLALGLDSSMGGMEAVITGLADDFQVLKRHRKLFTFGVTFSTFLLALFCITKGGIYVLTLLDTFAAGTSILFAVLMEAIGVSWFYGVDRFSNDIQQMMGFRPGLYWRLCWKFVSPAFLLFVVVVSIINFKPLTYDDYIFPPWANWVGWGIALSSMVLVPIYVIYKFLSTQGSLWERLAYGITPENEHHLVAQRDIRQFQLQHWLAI
Chain of 3',5'-cyclic-AMP phosphodiesterase 4D (Q08499 whole entry): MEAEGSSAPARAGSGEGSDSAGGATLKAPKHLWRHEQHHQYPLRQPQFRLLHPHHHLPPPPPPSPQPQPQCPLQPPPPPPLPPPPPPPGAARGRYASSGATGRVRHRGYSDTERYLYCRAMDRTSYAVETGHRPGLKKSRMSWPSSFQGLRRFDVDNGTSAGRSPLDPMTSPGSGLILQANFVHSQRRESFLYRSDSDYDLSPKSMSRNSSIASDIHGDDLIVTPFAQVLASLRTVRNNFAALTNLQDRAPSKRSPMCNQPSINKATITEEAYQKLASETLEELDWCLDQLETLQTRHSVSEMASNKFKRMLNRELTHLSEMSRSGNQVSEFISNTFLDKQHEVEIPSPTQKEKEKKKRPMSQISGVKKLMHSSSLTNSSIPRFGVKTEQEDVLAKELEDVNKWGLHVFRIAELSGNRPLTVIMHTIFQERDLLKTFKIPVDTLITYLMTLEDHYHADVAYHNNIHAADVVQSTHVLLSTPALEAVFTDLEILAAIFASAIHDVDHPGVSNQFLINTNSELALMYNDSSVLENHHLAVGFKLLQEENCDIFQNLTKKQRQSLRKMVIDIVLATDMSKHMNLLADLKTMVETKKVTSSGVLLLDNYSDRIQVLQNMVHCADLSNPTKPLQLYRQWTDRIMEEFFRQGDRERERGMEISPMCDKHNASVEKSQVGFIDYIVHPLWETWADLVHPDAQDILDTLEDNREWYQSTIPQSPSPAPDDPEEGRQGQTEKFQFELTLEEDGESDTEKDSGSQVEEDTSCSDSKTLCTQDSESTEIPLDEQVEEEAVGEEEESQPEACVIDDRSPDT
Chain of Voltage-gated inwardly rectifying potassium channel KCNH2 (Q12809 whole entry): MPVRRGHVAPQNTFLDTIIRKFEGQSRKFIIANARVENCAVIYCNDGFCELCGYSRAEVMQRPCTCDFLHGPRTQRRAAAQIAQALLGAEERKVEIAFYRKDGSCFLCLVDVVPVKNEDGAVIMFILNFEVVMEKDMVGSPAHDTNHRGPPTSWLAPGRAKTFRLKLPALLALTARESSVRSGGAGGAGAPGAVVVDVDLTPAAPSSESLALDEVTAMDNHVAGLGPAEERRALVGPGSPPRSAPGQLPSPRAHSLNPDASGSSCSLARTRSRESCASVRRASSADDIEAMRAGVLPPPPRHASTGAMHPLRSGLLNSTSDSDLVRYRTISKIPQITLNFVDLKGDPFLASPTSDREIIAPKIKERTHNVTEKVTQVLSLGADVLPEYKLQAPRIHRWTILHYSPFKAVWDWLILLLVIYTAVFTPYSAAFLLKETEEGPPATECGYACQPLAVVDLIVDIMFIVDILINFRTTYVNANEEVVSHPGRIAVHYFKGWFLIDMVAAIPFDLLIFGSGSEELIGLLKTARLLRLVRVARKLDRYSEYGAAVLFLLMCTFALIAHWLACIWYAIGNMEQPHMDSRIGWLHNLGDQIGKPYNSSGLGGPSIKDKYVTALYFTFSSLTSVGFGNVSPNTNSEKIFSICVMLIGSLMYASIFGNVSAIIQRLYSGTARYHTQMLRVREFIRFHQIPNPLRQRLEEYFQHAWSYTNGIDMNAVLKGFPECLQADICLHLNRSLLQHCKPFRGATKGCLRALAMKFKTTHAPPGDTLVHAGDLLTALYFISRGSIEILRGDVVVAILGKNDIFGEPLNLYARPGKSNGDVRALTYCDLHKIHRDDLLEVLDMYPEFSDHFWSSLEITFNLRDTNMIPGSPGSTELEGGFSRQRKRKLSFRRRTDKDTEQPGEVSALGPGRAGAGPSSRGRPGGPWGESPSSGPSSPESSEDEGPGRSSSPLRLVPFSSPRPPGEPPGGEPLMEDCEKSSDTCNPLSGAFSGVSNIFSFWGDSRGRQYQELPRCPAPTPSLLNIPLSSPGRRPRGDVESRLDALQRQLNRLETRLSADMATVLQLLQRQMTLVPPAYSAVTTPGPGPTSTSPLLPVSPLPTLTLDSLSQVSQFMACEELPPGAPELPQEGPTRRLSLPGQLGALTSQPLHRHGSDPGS
Chain of Delta-type opioid receptor (P41143 whole entry): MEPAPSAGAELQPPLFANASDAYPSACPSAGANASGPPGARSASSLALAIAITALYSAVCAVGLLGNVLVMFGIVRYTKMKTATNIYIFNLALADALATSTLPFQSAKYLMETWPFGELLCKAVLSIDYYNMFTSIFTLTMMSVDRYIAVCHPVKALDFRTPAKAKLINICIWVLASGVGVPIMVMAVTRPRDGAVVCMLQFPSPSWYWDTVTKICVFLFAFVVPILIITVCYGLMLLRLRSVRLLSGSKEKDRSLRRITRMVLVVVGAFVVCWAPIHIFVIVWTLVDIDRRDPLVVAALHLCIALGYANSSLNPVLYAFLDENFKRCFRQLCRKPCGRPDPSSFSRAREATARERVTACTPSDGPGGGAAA
Chain of cGMP-inhibited 3',5'-cyclic phosphodiesterase 3A (Q14432 whole entry): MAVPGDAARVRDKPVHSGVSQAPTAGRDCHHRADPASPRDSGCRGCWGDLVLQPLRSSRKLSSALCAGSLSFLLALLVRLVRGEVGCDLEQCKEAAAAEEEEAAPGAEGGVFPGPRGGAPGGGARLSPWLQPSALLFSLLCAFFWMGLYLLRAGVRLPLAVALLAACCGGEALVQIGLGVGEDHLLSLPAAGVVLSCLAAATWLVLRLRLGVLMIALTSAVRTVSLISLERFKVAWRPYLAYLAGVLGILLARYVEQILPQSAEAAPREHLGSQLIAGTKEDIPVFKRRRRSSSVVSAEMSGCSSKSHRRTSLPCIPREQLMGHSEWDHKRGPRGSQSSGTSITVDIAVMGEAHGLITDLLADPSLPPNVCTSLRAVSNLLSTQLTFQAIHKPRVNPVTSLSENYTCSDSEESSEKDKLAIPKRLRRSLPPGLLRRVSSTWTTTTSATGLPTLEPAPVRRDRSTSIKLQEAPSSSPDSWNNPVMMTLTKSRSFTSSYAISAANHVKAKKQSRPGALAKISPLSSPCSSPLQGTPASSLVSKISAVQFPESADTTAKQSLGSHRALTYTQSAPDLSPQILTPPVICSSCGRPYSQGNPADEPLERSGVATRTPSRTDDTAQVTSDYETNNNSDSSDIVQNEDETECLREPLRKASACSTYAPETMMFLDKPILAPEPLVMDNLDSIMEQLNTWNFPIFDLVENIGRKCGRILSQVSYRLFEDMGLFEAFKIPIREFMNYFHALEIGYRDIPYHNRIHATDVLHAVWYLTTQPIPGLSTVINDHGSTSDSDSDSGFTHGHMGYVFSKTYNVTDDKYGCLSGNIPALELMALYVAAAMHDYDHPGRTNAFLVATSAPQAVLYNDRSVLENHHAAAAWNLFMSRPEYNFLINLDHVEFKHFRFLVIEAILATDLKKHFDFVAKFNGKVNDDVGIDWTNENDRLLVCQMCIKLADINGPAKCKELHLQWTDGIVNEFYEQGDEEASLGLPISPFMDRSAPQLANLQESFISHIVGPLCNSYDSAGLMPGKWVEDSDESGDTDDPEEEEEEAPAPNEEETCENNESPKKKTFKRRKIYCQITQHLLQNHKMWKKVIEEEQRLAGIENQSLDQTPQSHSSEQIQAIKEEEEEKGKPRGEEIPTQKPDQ
Chain of Sodium-dependent dopamine transporter (Q01959 whole entry): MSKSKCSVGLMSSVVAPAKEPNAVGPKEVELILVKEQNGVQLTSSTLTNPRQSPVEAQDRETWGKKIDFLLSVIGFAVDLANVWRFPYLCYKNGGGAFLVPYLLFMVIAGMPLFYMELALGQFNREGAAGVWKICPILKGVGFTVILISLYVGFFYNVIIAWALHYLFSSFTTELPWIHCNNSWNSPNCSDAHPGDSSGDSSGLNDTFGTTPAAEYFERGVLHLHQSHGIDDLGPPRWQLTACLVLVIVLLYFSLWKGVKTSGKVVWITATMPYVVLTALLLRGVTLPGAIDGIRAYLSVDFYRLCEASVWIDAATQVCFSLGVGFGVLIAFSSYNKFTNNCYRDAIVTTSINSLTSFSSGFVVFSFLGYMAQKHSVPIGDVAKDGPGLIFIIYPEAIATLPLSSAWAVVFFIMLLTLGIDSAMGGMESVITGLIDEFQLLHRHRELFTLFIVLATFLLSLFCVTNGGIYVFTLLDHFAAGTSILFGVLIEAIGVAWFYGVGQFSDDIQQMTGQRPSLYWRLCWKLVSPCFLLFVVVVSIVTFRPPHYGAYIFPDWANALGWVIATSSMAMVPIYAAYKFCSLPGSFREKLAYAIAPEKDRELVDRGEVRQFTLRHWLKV

For `CC(C(=O)O)c1ccc(N2CC=CC2)c(Cl)c1` (stereo not given) [PIRPROFEN], the AC50 (usually the concentration giving half of the maximal activity seen) is above 30 µM in assay [1]; above 10 µM in assay [2]; above 10 µM in assay [3]; above 30 µM in assay [4]; above 30 µM in assay [5]; above 10 µM in assay [6]. Also, the AC50 in [7] is above 30 µM; in assay [8], above 30 µM; in assay [9], above 10 µM; in [10], above 30 µM; in [11], above 10 µM; in [12], above 30 µM. Further, the values for the AC50 in assay [13] and in [14] were above 10 µM and above 30 µM, respectively.
In the case of `COc1ccc2c(c1)C(=O)N(CCc1ccc(S(=O)(=O)NC(=O)NC3CCCCC3)cc1)C(=O)C2(C)C` [GLIQUIDONE], the AC50 is above 30 µM in assay [1]; above 30 µM in assay [2]; above 30 µM in assay [3]; 5.3 µM in assay [4]; above 30 µM in assay [5]; above 30 µM in assay [6]. The AC50 in assay [7] is above 30 µM; in assay [8], above 30 µM; in assay [9] it was above 30 µM; in [10] it was 1.4 µM; in [11], above 30 µM; in assay [12], above 30 µM. Besides, the AC50 in [13] and in assay [14] was above 30 µM throughout.
On to `Oc1ncnc2[nH]ncc12` [ALLOPURINOL], for which the AC50 in [1] is above 30 µM; in assay [2], above 10 µM; in assay [3] it was above 10 µM; in [4] it was above 30 µM; in assay [5], above 30 µM; in [6] it was above 10 µM. Further, the AC50 in assay [7] was above 30 µM; in assay [8] it was above 30 µM; in assay [9], above 10 µM; in assay [10], above 30 µM; in assay [11], above 10 µM; in assay [12], above 30 µM. Also, the half-maximal activity concentration (AC50) in assay [13] is above 10 µM; in [14] it was above 30 µM.
In the case of `CO/N=C(\C(=O)N[C@@H]1C(=O)N2C(C(=O)[O-])=C(C[N+]3(C)CCCC3)CS[C@H]12)c1csc(N)n1`, the AC50 in [1], in assay [2], in assay [3], in assay [4], in [5] and in [6] was above 300 µM throughout. Besides, the AC50 in [7], in assay [8], in [9], in assay [10], in [11] and in assay [12] was above 300 µM throughout. Moreover, the AC50 in assay [13] and in assay [14] was above 300 µM each time.
Turning to `CCc1ccc(CCOc2ccc(CC3SC(=O)NC3=O)cc2)nc1` (stereo not given) [PIOGLITAZONE], the AC50 is above 10 µM in assay [1]; above 10 µM in [2]; above 10 µM in [3]; above 30 µM in assay [4]; above 30 µM in assay [5]; above 10 µM in [6]. Further, the concentration at half-maximal activity (AC50) in [7] is above 30 µM; in assay [8], above 10 µM; in [9] it was above 30 µM; in [10], above 10 µM; in [11] it was above 10 µM; in assay [12], above 30 µM. Besides, the AC50 in [13] and in assay [14] was above 30 µM each time.
Turning to `CCCS(=O)(=O)Nc1ccc(F)c(C(=O)c2c[nH]c3ncc(-c4ccc(Cl)cc4)cc23)c1F` [VEMURAFENIB], the AC50 in [1], in assay [2], in assay [3], in assay [4], in [5] and in [6] was above 30 µM each time. In addition, the AC50 in [7], in assay [8], in [9], in assay [10], in [11] and in assay [12] was above 30 µM in each case. Moreover, the AC50 in assay [13] and in [14] was above 30 µM each time.
Consider `CCN(CC)CCNC(=O)c1cc(Cl)c(N)cc1OC` [METOCLOPRAMIDE], for which the AC50 in assay [1] was above 30 µM; in assay [2], 0.076 µM; in assay [3], above 10 µM; in assay [4], above 30 µM; in assay [5], 2.77 µM; in [6], above 10 µM. Further, the AC50 was above 30 µM in assay [7]; above 10 µM in assay [8]; above 10 µM in [9]; above 30 µM in assay [10]; above 10 µM in assay [11]; above 30 µM in assay [12]. For the same molecule, the AC50 in assay [13] was above 10 µM; in assay [14], above 30 µM.
Take `CC(C)C(=O)Nc1ccc([N+](=O)[O-])c(C(F)(F)F)c1` [FLUTAMIDE]: the AC50 in assay [1] was above 30 µM; in assay [2], above 30 µM; in assay [3], above 30 µM; in assay [4], above 10 µM; in [5], 2.53 µM; in [6] it was above 10 µM. In addition, the AC50 in assay [7] is above 30 µM; in assay [8] it was above 30 µM; in [9] it was above 10 µM; in assay [10] it was above 30 µM; in [11] it was above 10 µM; in assay [12], above 10 µM. In addition, the values for the AC50 in assay [13] and in assay [14] were above 10 µM and above 30 µM, respectively.
`OCCN1CCN(CCCN2c3ccccc3C=Cc3ccccc32)CC1` [OPIPRAMOL]: the AC50 is above 30 µM in assay [1]; 1.32 µM in assay [2]; above 30 µM in [3]; above 30 µM in [4]; 14 µM in assay [5]; above 30 µM in assay [6]. The AC50 in assay [7], in assay [8], in assay [9], in assay [10], in assay [11] and in assay [12] was above 30 µM each time. In addition, the AC50 in assay [13] and in assay [14] was above 30 µM in each case.
Regarding `CC(C(=O)O)c1ccc(C(=O)c2cccs2)cc1` (stereo not given) [SUPROFEN], the AC50 is above 30 µM in assay [1]; above 30 µM in [2]; above 10 µM in [3]; above 30 µM in [4]; above 30 µM in assay [5]; above 10 µM in assay [6]. The AC50 is above 10 µM in assay [7]; above 30 µM in assay [8]; above 10 µM in [9]; above 30 µM in assay [10]; above 10 µM in assay [11]; above 10 µM in assay [12]. Besides, the AC50 in [13] and in [14] was above 10 µM throughout.
